From article doi:10.1101/2020.10.22.350827v1 (biorxiv, 2020)
Numbering of substitutions follows the chain as printed.

Legend:
[1] = target: T1, Nluc-A1R (adenosine A1 receptor) (Homo sapiens, UniProt P30542, I175A); experiment: NanoBRET competition binding, live HEK […] cells; assay type: cell-based
T1 sequence (P30542 1-326 I175A): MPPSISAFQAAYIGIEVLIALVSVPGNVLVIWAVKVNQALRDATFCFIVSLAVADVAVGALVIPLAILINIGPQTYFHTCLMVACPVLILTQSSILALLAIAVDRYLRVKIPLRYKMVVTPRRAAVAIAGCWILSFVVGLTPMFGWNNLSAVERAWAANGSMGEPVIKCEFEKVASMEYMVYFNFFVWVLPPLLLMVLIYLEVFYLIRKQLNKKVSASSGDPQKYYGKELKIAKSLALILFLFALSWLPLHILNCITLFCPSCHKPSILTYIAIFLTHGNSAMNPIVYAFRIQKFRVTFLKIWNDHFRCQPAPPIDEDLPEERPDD

[2] = target: T2, Nluc-A1R (adenosine A1 receptor) (Homo sapiens, UniProt P30542, L253A); experiment: NanoBRET competition binding, live HEK […] cells; assay type: cell-based
T2 sequence (P30542 1-326 L253A): T1 sequence (P30542 1-326 I175A) with A175I, L253A

[3] = target: T3, Nluc-A1R (adenosine A1 receptor) (Homo sapiens, UniProt P30542, I69A); experiment: NanoBRET competition binding, live HEK […] cells; assay type: cell-based
T3 sequence (P30542 1-326 I69A): T1 sequence (P30542 1-326 I175A) with I69A, A175I

[4] = target: T4, Nluc-A1R (adenosine A1 receptor) H264A (Homo sapiens, UniProt P30542, H264A); experiment: cell-based; design: species or system HEK 293
T4 sequence (P30542 1-326 H264A): T1 sequence (P30542 1-326 I175A) with A175I, H264A

[5] = target: T5, Nluc-A1R (adenosine A1 receptor) S267A (Homo sapiens, UniProt P30542, S267A); experiment: cell-based; design: species or system HEK 293
T5 sequence (P30542 1-326 S267A): T1 sequence (P30542 1-326 I175A) with A175I, S267A

[6] = target: T6, Nluc-A1R (adenosine A1 receptor) L253T (Homo sapiens, UniProt P30542, L253T); experiment: cell-based; design: species or system HEK 293
T6 sequence (P30542 1-326 L253T): T1 sequence (P30542 1-326 I175A) with A175I, L253T

[7] = target: T7, Nluc-A1R (adenosine A1 receptor) L253F (Homo sapiens, UniProt P30542, L253F); experiment: cell-based; design: species or system HEK 293
T7 sequence (P30542 1-326 L253F): T1 sequence (P30542 1-326 I175A) with A175I, L253F

Ki [1]: 2190 nM | Ki [2]: 3240 nM | Ki [3]: 45700 nM | Ki [4]: 955 nM | Ki [5]: 1020 nM | Ki [6]: 2040 nM | Ki [7]: 1620 nM
SMILES: OC[C@H]1O[C@@H](n2cnc3c(N[C@@H]4CCC[C@H]4O)ncnc32)[C@H](O)[C@@H]1O [compound 6, HOCPA]
